One experiment has as its system IgE. Description: Serum IgE response induced by FF1-4D5 + H∂A1 anti-IgD antibodies (ELISA, Assay A / Assay F). The class given is in vivo, mouse (Balb/c female). The settings on record: 20 μg days 3 and 4. As for the experimental part:
Mouse hybridoma cells expressing either FF1-4D5 antibody or H∂A1 antibody are thawed, established in culture, and incubated in mice as ascite tumors. FF1-4D5 antibody is a mouse IgG2a monoclonal antibody of the b allotype that binds the Fd fragment of the ∂ chain of the a allotype IgD which activates β cells through antigen internalization and processing, promoting cognate interactions with antigen-specific T cells (D. K. Goroff et al., J. Immunol. 136: 2382 (1986)). H∂A1 antibody is a mouse IgG2b of the b allotype that binds the Fc fragment of the ∂ chain of the a allotype IgD which activates β cells through crosslinking IgD (I. M. Zitron and B. L. Clevinger, J. Exp. Med. 152: 1135 (1980)). Each antibody is purified from their respective ascites tumor fluid. […] Serum from the injected mice is recovered and the mean concentration of IgE determined.
Serum levels of IgE are determined and IgE levels are shown to be inhibited in a dose dependent manner.
ELISA (enzyme linked immunosorbant assay) measurements of IgE are as follows. About 5 μg of B1E3 antibody in 100 μl borate buffered saline (pH8.5) is added to wells of a NuncImmulon II 96 well plate (DiRuscio & Assoc., St. Louis, Mo.) at 37° C. for 90 minutes. The non-bound antibody is removed by flicking the plate. Unreacted sites on the plastic plate are blocked by adding about 200 μl of a 2% solution of newborn bovine serum (NBS) in PBS at 37° C. for 60 minutes. The standard IgE (or an unknown murine serum sample) is diluted to between about 4 ng/ml-256 ng/ml in Hanks-HS (20 mM Hepes, 2% NBS in Hanks Balanced Salt Solution, Gibco, Grand Island, N.Y.) or to 1/200 to 1/1000 in Hanks-HS respectively. 100 μl of standard (or unknown dilutions) are added in triplicate to the wells of the plate and allowed to absorb to B1E3 antibody at about 37° C. for 2-4 hours. The solution is removed by flicking the plate and each well is washed with about 0.5 ml 0.05% Tween 20-PBS 5 times. About 100 μl of biotinylated R1E4, called the primary antibody, diluted to 200 ng/ml is added to all wells and incubated at about 4° C. overnight. The solution is removed by flicking the plate and washed 5 times as described above. The developing reagent (Avidin and biotin-horse radish peroxidase) is incubated in 2% NBS in PBS at ambient temperature for 30 minutes, according to manufacturer's specifications (Vector Laboratories, Burlingame, Calif.). About 100 μl of developing reagent is added to each well and incubated at ambient temperature for 30 minutes. Colorimetric substrate for the developing reagent (ABTS peroxidase substrate system, KPL, Gaithersburg, Md.) is prepared by mixing equal volumes of solutions A and B and incubating at ambient temperature for 60 minutes. The developing reagent solution is removed by flicking the plate and washed 5 times as described above. About 100 μl of the mixture of substrates is added to each well and incubated at ambient temperature for 60 minutes. The optical density of each well is determined on a BioTek ELISA reader (Biotek Instruments, Inc., Burlington, Vermont) and the absorbance data transferred electronically to a DEC VAX mainframe computer. A standard curve is fitted to the IgE standard optical densities using straight line, linear regression statistical fits. IgE in the unknown serum samples is determined by comparing the optical density of the unknown to the standard curve and multiplying that number by the dilution of serum used in the assay.
Stimulation of a transient serum IgE response in mouse with two monoclonal antibodies directed against IgD is carried out as follows.
Mouse hybridoma cells expressing either FF1-4D5 antibody or H∂Al antibody are thawed, established in culture, and incubated in CB6 F1 female mice as an ascites tumor and each immunoglobulin is purified from the ascites fluid as described above. […]

A further experiment relates to IgM. Description: Serum IgM in anti-IgD stimulated mice (two site sandwich ELISA, Assay E). The class given is in vivo, mouse (Balb/c female). As to conditions: 20 μg days 3 and 4; for inhibition of IgM: Example 25; for IgM ± SD: Table 14, day 8 (control 4147). As for the experimental part:
Sera from mice treated with compounds in accordance with the method of the invention are analyzed for levels of IgG1, IgG2a, IgG3, and IgM.
Measurement of mouse IgM by a two site sandwich ELISA is performed in substantial accordance with the teachings of Assay B except for the following changes. About 250 ng of rabbit anti-mouse IgM (Zymed Laboratories) is used to coat a NuncImmulon 96 well plate. The IgM standard is purchased from Southern Biotech. The standard curve is linear between 8-500 ng/ml. Serum containing IgM is diluted 1/4,000 to 1/60,000. About a 1/10,000 dilution of goat anti mouse IgM conjugated to horse radish peroxidase is used as a combined primary antibody and developing reagent. 100 μl is added to each well and the plate is incubated at about 4° C. overnight. The colorimetric substrate is prepared and used as described in Assay A.
Two groups of 4 Balb/c female mice per group are injected with both 100 μg FF1-4D5 antibody and 100 μg H∂Al antibody. On day 3 and 4 the mice are injected with PBS (Group A) or 20 μg (±) methyl 11α,16-dihydroxy-16-ethyl-9-oxoprosta-5Z,13E-dien-1-oate (Group B) at 7 a.m., 1 p.m. and 7 p.m. in substantial accordance with the teaching of Example 13. On day -1, 7, 8, 9 and 11, 50-100 μl of serum is recovered and analyzed for IgE by Assay A and for IgM by Assay E. The results are shown in Table 6.
Three groups of 5 Balb/c female mice per group are injected with both 100 μg FF1-4D5 antibody and 100 μg H∂A1 antibody on day 0. Group A is a control with no further treatment. On day 3 and 4, the mice are injected with 20 μg (±) methyl 11α,16-dihydroxy-4,4,16-trimethyl-9-oxoprosta-13E-en-1-oate (Group B) or 20 μg (±) methyl 11α,16-dihydroxy-16-methyl-9-oxoprosta-3,5Z,13E-trien-1-oate (Group C) as in Example 13. On day -1 and 8, […] of serum is recovered and analyzed for IgE, IgG1, IgG2a, IgG3 and IgM by Assays A, B, C, D and E, respectively.

The mark [1] stands for this setting: Table 12, day 8 (control 11398).

Consider `CCCCC(C)(O)C/C=C/[C@H]1[C@H](O)CC(=O)[C@@H]1CCC1CC1CCC(=O)OC` (relative stereo) [(±) methyl 2-[2-[3R-3α-hydroxy-2β-(4-hydroxy-4-methyl-1E-octenyl)-5-oxo-1α-cyclopentyl]ethyl]cyclopropanepropanoate], for which the “de novo IgE synthesis” value with IgE (Example 23) was “inhibit de novo IgE synthesis”. Also, the “IgE ± SD” value in the experiment on IgE (setting [1]) came to 3034 ± 878 ng/mL.

For `CCCCC(C)(O)C/C=C/[C@H]1[C@H](O)CC(=O)[C@@H]1CC1CC1CCCC(=O)OC` (relative stereo) [(±) methyl 2-[2-[3R-3α-hydroxy-2β-(4-hydroxy-4-methyl-1E-octenyl)-5-oxo-1α-cyclopentyl]methyl]cyclopropanebutanoate], the “de novo IgE synthesis” value with IgE (Example 23) is reported as “inhibit de novo IgE synthesis”. Further, the “IgE ± SD” value with IgE (setting [1]) was 2750 ± 318 ng/mL.

On to `CCCCC(C)(O)C/C=C/[C@H]1[C@H](O)CC(=O)[C@@H]1C/C=C\C=CCC(=O)OC` (relative stereo) [(±) methyl 11α,16-dihydroxy-16-methyl-9-oxoprosta-3,5Z,13-trien-1-oate], for which the “de novo IgE synthesis” value in the experiment with IgE (Example 25) is listed as “inhibit de novo IgE synthesis”. The “IgE ± SD” value in the experiment on IgE (Table 14, day 8 (control 6071)) was 1176 ± 137 ng/mL. Moreover, in the experiment with IgM, the “inhibition of IgM” value was “not IgG1, IgG2a, IgG3 and IgM”; the “IgM ± SD” value was 7708 µg/mL.

For `CCCCC(C)(O)C/C=C/[C@H]1[C@H](O)CC(=O)[C@@H]1CCCC(C)(C)CCC(=O)OC` (mixture of isomers) [(±) methyl 11α,16-dihydroxy-4,4,16-trimethyl-9-oxoprost-13E-en-1-oate], in the experiment on IgE (Example 25), the “de novo IgE synthesis” value is recorded as “inhibit de novo IgE synthesis”. Further, the “IgE ± SD” value in the experiment on IgE (Table 14, day 8 (control 6071)) was below 800 ng/mL. In addition, in the experiment on IgM, the “inhibition of IgM” value was “not IgG1, IgG2a, IgG3 and IgM”; the “IgM ± SD” value was 9792 ± 984 µg/mL.

These data come from patent US5157052A, “Method for inhibiting IgE production” (priority 1990, dated 1992).
